The target of assay [1] is T1, Gastrin/cholecystokinin type B receptor (Mus musculus, UniProt P56481).
T1 sequence (P56481 whole entry): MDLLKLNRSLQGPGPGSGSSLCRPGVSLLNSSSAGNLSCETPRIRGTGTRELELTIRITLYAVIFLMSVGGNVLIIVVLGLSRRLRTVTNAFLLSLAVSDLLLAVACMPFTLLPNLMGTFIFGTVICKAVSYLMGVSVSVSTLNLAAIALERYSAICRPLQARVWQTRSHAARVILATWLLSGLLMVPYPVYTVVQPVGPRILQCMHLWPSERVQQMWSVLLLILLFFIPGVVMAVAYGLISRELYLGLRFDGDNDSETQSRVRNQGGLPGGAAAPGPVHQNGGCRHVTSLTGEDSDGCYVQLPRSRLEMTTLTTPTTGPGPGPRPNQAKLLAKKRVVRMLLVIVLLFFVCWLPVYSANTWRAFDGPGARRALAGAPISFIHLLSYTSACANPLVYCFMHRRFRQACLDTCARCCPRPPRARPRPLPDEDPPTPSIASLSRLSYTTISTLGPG
Kind of assay: Concentration producing half-maximal inhibition of specific binding of [125I]Bolton-Hunter CCK-8 to Cholecystokinin type B receptor in the mouse cerebral cortex. The format is tissue-based.

The target of assay [2] is T2, Cholecystokinin receptor type A (Rattus norvegicus, UniProt P30551).
T2 sequence (P30551 whole entry): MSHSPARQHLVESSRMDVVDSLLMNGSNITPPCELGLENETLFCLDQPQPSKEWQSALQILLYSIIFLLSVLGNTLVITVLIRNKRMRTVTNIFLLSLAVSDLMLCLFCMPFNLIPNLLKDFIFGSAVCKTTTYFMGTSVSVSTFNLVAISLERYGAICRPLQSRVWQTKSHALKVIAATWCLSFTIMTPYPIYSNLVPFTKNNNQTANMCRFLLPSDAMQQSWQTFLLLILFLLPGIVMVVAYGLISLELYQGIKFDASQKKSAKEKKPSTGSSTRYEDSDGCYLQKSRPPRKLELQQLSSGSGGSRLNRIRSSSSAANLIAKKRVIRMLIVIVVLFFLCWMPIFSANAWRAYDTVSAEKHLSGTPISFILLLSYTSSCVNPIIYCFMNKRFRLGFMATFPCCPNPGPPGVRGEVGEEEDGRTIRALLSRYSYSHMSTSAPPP
Kind of assay: Concentration producing half-maximal inhibition of specific binding of [125I]Bolton-Hunter CCK-8 to Cholecystokinin type A receptor in the rat pancreas.

The target of a further assay is T3, Substance-K receptor (Mesocricetus auratus, UniProt P51144).
T3 sequence (P51144 whole entry): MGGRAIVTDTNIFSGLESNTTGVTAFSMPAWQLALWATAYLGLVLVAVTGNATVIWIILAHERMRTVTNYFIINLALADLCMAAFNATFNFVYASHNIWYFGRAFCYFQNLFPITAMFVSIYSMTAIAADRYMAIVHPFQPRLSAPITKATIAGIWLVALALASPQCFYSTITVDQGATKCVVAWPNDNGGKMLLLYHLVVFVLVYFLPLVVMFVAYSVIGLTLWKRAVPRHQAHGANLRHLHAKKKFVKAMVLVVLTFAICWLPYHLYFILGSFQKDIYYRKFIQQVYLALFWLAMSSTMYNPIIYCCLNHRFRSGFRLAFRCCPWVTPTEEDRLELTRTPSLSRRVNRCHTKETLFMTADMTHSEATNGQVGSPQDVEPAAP
Put plainly: (§1) Concentration producing half-maximal inhibition of specific binding of. [125I]neurokinin A to NK-2 receptors in the hamster urinary bladder. The assay is classed as single protein.

Another assay has as its target T4, Neuromedin-K receptor (Cavia porcellus, UniProt P30098).
T4 sequence (P30098 whole entry): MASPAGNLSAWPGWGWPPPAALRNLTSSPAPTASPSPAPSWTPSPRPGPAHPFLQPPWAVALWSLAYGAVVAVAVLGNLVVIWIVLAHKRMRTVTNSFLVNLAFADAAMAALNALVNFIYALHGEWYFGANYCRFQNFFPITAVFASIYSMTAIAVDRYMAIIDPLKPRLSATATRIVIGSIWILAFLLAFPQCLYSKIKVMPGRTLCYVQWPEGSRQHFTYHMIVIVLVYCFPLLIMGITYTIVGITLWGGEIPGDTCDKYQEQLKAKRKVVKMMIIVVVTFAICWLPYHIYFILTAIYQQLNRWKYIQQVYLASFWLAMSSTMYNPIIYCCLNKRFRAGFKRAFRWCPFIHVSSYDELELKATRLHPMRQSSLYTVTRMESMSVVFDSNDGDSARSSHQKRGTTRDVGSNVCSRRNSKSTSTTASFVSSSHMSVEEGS
Kind of assay: (§2) Concentration producing half-maximal inhibition of specific binding of [3H]senktide to Tachykinin receptor 3 in the guinea pig cerebral cortex. The format is tissue-based.

A further assay deals with Substance-P receptor (Cavia porcellus, UniProt P30547). Put plainly: Concentration producing half-maximal inhibition of specific binding of. [125I]Bolton-Hunter Substance P to NK-1 receptors in the guinea pig cerebral cortex. The assay is classed as tissue-based.
In assay [3] the target is T5, Substance-K receptor (Mesocricetus auratus) (UniProt P51144).
T5 sequence (whole entry): T3 sequence (P51144 whole entry)
The assay is described as §1. As to conditions: Cricetulus griseus.

Assay [4] concerns the target T6, Neuromedin-K receptor (Cavia porcellus) (UniProt P30098).
T6 sequence (whole entry): T4 sequence (P30098 whole entry)
Described as §2. The assay is classed as tissue-based.

The values below come from ChEMBL document CHEMBL1127756 (Bioorg Med Chem Lett, 1994).

Numbered stars: 1 amine (or outer) side, 2 acyl side, 3 side chain; on linkers, the order of the positions; unused ones are H or OH. Square brackets hold non-standard residues; d marks the D form. Peptide text beside a SMILES is read from it. X1 = C/C=C/CC[C@H](N[*:1])C(=O)[*:2]; pGlu = O=C1CC[C@@H](C(=O)O)N1; Ahp(2) = CCCCC[C@H](N)C(=O)O

Chain of Substance-P receptor (P30547 whole entry): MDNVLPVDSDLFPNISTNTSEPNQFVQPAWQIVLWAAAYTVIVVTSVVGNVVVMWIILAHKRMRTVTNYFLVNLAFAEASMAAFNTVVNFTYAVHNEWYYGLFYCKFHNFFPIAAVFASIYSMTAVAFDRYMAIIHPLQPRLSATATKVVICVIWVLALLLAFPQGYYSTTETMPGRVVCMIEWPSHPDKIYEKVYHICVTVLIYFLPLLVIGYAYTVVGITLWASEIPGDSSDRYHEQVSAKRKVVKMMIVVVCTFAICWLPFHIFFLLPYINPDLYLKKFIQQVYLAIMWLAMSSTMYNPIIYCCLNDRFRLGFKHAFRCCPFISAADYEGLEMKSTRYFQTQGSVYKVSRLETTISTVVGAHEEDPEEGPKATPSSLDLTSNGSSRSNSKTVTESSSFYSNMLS

For `C/C=C/CC[C@H](NC(=O)[C@@H](N)Cc1c[nH]c2ccccc12)C(=O)N[C@@H](CC(=O)O)C(=O)N[C@@H](Cc1ccccc1)C(N)=O`, the concentration for half-maximal inhibition (IC50) in assay [1] was 0.0049 µM; in assay [2], 8.16 µM.
In the case of `CCCCC[C@H](NC(=O)[C@H](CC(C)C)NC(=O)CNC(=O)[C@H](Cc1ccccc1)NC(=O)[C@H](Cc1ccccc1)NC(=O)[C@H](CCC(N)=O)NC(=O)[C@H](CCC(N)=O)NC(C)=O)C(N)=O` (Ac-QQFFGL[Ahp(2)]-NH2), the IC50 amounted to 0.637 µM at Substance-K receptor, 0.533 µM on Neuromedin-K receptor and 0.0447 µM at Substance-P receptor.
As to `C/C=C/CC[C@H](NC(=O)[C@H](CC(C)C)NC(=O)CNC(=O)[C@H](Cc1ccccc1)NC(=O)[C@H](Cc1ccccc1)NC(=O)[C@H](CCC(N)=O)NC(=O)[C@H](CCC(N)=O)NC(C)=O)C(N)=O` (Ac-QQFFGL[X1]-NH2), the 50% inhibitory concentration (IC50) at Substance-K receptor was found to be 1.37 µM; at Neuromedin-K receptor, 0.882 µM; at Substance-P receptor, 0.115 µM.
As to `CCCCC[C@H](NC(=O)[C@@H](N)Cc1c[nH]c2ccccc12)C(=O)N[C@@H](CC(=O)O)C(=O)N[C@@H](Cc1ccccc1)C(N)=O` (H-W[Ahp(2)]DF-NH2), the concentration for half-maximal inhibition (IC50) in assay [1] worked out at 0.00283 µM; in assay [2] it was 8.49 µM.
With `CSCC[C@H](NC(=O)[C@H](CC(C)C)NC(=O)CNC(=O)[C@H](Cc1ccccc1)NC(=O)[C@H](Cc1ccccc1)NC(=O)[C@H](CCC(N)=O)NC(=O)[C@@H]1CCC(=O)N1)C(N)=O` ([pGlu]QFFGLM-NH2), the IC50 on Substance-P receptor worked out at 0.0254 µM.
Consider `CCCCC[C@H](NC(=O)[C@H](CC(C)C)NC(=O)CNC(=O)[C@H](Cc1ccccc1)NC(=O)[C@H](Cc1ccccc1)NC(=O)[C@H](CCC(N)=O)NC(=O)[C@@H]1CCC(=O)N1)C(N)=O` ([pGlu]QFFGL[Ahp(2)]-NH2), for which the figures for the inhibition in assay [3] and in assay [4] were 47% and 25%, respectively. Moreover, at Substance-P receptor, the IC50 worked out at 0.097 µM.
`C/C=C/CC[C@H](NC(=O)[C@H](CC(C)C)NC(=O)CNC(=O)[C@H](Cc1ccccc1)NC(=O)[C@H](Cc1ccccc1)NC(=O)[C@H](CCC(N)=O)NC(=O)[C@@H]1CCC(=O)N1)C(N)=O` ([pGlu]QFFGL[X1]-NH2): the IC50 on Substance-K receptor came out at 2.9 µM; at Neuromedin-K receptor, 1.88 µM; at Substance-P receptor, 0.366 µM.
`CSCC[C@H](NC(=O)[C@@H](N)Cc1c[nH]c2ccccc12)C(=O)N[C@@H](CC(=O)O)C(=O)N[C@@H](Cc1ccccc1)C(N)=O` [TETRAGASTRIN] gave an IC50 in assay [2] of 4.25 µM. That is a single-digit micromolar value.
For Ac-QQFFGLM-NH2, the IC50 on Substance-K receptor came out at 1.62 µM; at Neuromedin-K receptor, 0.276 µM; at Substance-P receptor, 0.0295 µM.
Take H-QQFFGLM-NH2: the 50% inhibitory concentration (IC50) on Substance-K receptor was found to be 3.29 µM; at Neuromedin-K receptor, 1.13 µM; at Substance-P receptor it was 0.0496 µM.

For orientation: IC50 means the concentration at which inhibition is half-maximal. Lower therefore signals higher potency. The term inhibition denotes the percentage by which the read-out fell short of the control. A lower inhibition goes with a weak effect.
